Data published in the NIST ThermoML archive (doi:10.1016/j.jct.2004.11.017).
± gives the expanded uncertainty stated by the source.

Columns and labels:
[1] = 101 kPa, Liquid
[2] = xn = mol fraction of the nth substance listed; details: 101 kPa, Liquid, x2 = 0

mass density ([1]; 298.15 K)	mass density ([1]; 303.15 K)	mass density ([1]; 308.15 K)	mass density ([1]; 313.15 K)	mass density ([1]; 318.15 K)	mass density ([1]; 323.15 K)	mass density ([1]; 328.15 K)	mass density ([1]; 333.15 K)	mass density ([1]; 338.15 K)	mass density ([1]; 343.15 K)	mass density ([2]; 298.15 K)	mass density ([2]; 303.15 K)	mass density ([2]; 308.15 K)	mass density ([2]; 313.15 K)	mass density ([2]; 318.15 K)	mass density ([2]; 323.15 K)	mass density ([2]; 328.15 K)	mass density ([2]; 333.15 K)	mass density ([2]; 338.15 K)	mass density ([2]; 343.15 K)	SMILES
1010.2 ± 1.4 kg/m3	1005.8 ± 1.4 kg/m3	1001.4 ± 1.3 kg/m3	997 ± 1.3 kg/m3	992.6 ± 1.4 kg/m3	988.2 ± 1.5 kg/m3	983.9 ± 1.5 kg/m3	979.5 ± 1.6 kg/m3	975.1 ± 1.7 kg/m3	970.6 ± 1.8 kg/m3											CC[S+]([O-])CC [diethyl sulfoxide]
										996.6 ± 1.3 kg/m3	995.2 ± 1.4 kg/m3	993.6 ± 1.4 kg/m3	991.9 ± 1.4 kg/m3	989.7 ± 1.4 kg/m3	987.6 ± 1.5 kg/m3	985.3 ± 1.5 kg/m3	982.8 ± 1.6 kg/m3	979.3 ± 1.6 kg/m3	977.5 ± 1.6 kg/m3	O [water] + CC[S+]([O-])CC
